What was measured:
MIC2 = assay: SPR binding of PROTACs to immobilized antibody MIC2; conditions: MIC2, 1:1 kinetic binding model
Protocol: (§1) The binding affinities of hit antibodies MIC1 and MIC2 to a diverse set of VH032-based PROTACs (FIGS. 8A-8B) was determined by surface plasmon resonance (SPR) in a Biacore T200 instrument. The running buffer consist of PBS, 0.05% Tween-20, 2% DMSO and temperature and flow rate were set to 30° C. and 30 μL/min, respectively. The assay setup is depicted exemplarily in FIG. 7A. CM5 sensor chips were coated with antibody (=ligand; 2500 RU) using standard EDC/NHS chemistry. PROTACs (=analytes) were serially diluted (1 μM-1.9 nM) in running buffer, injected to the instrument in consecutive runs and were captured by the antibody resulting in an increase of the corresponding SPR response. After the association step (300 s), running buffer was injected for 600 s and the PROTAC dissociated from the antibody leading to signal decrease. After each run, residual bound PROTAC was removed from the immobilized antibody by injection of 10 mM glycine/HCl, pH 1.5 for 2×30 s regenerating the antibody for the next association and dissociation cycle. To compensate for matrix effects, the measured SPR response signal was subtracted by the analyte response to an inactivated (EDC/NHS, ethanol amine) reference surface omitting the ligand. Furthermore, a DMSO solvent correction was performed and analyte response was subtracted by the running buffer signal. The corrected response was fitted by a 1:1 kinetic binding model yielding the on- (kon) and off-rate (koff) of the PROTAC, as well as its dissociation constant (KD).

MIC1 = assay: SPR binding of PROTACs to immobilized antibody MIC1; conditions: binding of PROTACs to MIC1, steady-state model
Protocol: as §1, with “The corrected response was fitted by a 1:1 kinetic binding model yielding the on- (kon) and off-rate (koff) of the PROTAC, as well as its dissociation constant (KD).” left out

MCF7 = assay: CellTiter-Glo cell viability assay (VHH-based PAX); conditions: MCF7, PROTAC alone
Protocol: (§2) Several cell viability experiments were performed following the procedure described below: Cells were seeded in different media into white cell culture-treated flat and clear bottom multiwell plates followed by overnight incubation in a humid chamber at 37° C. and 5% CO2. Complexation was performed as described in chapter 7.4.
(§3) The solutions were added to the cells based on the antibody concentration using nanodrop dispension using a Tecan D300e Digital Dispenser and all wells were normalized to the same volume using 0.3% TW20 in PBS pH 7.4 and DMSO to a final solvent concentration of 0.05% DMSO and 0.003% TW20. Incubation was performed at 37° C. at 5% or 10% CO2 dependent on the medium. The assay was developed after 3 days if not otherwise stated using CellTiter-Glo Luminescent Cell Viability Assay as described in the manufacturer's protocol. In brief, the plates were equilibrated to room temperature for 30 minutes. 100 mL CellTiter-Glo Buffer were added to the CellTiter-Glo Substrate Flask and mixed well. 30 μL of the reagent was transferred to each well. After incubation for 3 minutes at room temperature while shaking at 550 rpm, the plate was incubated for another 10 minutes at room temperature. The luminescence was read on an Envision reader from Perkin Elmer. Solvent alone and Bortezomib (1.0E-05 M) served as high control (100% viability) and low control (0% viability), respectively. Raw data were converted into percent cell viability relative to the high and low control, which were set to 100% and 0%, respectively. […] The concentration corresponds to the concentration of PROTACs in the PAX.

MDAMB468 cells = assay: CellTiter-Glo cell viability assay (VHH-based PAX); conditions: MDAMB468, PROTAC alone
Protocol: as §2, §3

HCC827 = assay: CellTiter-Glo cell viability assay (VHH-based PAX); conditions: HCC827, PROTAC alone
Protocol: as §2, §3

A431 = assay: CellTiter-Glo cell viability assay (VHH-based PAX); conditions: A431, PROTAC alone
Protocol: as §2, §3

OVCAR3 = assay: CellTiter-Glo cell viability assay (VHH-based PAX); conditions: OVCAR3, PROTAC alone
Protocol: as §2, §3

SKOV3 = assay: CellTiter-Glo cell viability assay (VHH-based PAX); conditions: SKOV3, PROTAC alone
Protocol: as §2, §3

HEPG2 cells = assay: CellTiter-Glo cell viability assay (VHH-based PAX); conditions: HEPG2, PROTAC alone
Protocol: as §2, §3

A549 = assay: CellTiter-Glo cell viability assay (VHH-based PAX); conditions: A549, PROTAC alone
Protocol: as §2, §3

NCIN87 = assay: CellTiter-Glo cell viability assay (VHH-based PAX); conditions: NCIN87, PROTAC alone
Protocol: as §2, §3

SKBR3 = assay: CellTiter-Glo cell viability assay (VHH-based PAX); conditions: SKBR3, PROTAC alone
Protocol: as §2, §3

CLL1xMIC7 = assay: SPR affinity of VHH clone (antibody fusion) to PROTACs; conditions: CLL1xMIC7 immobilized, 25° C., read-out: KD [M] for antibody binding to PROTAC
Protocol: (§4) The kinetic and affinity parameters of protein-PROTAC interactions were evaluated by SPR. The anti-PROTAC VHH clones MIC5-MIC14 were immobilized as CD33 or CLL1 antibody fusion (the manufacturing of fusion proteins and the used linker is described in chapter 7.9) onto a CM5 (Series S) sensor chip via the standard amine coupling procedure, at 25° C. Prior to immobilization, the carboxymethylated surface of the chip was activated with 400 mM 1-ethyl-3-(3-dimethylaminopropyl)-carbodiimide and 100 mM N-hydroxysuccinimide for 7 min. Hit anti-PROTAC VHH as CD33 and CLL1 antibody fusions were diluted to 10 μg/ml in 10 mM Acetate at pH 4.5 and immobilized on the activated surface chip for 7 min, in order to reach 3,000 to 6,000 response units (RU). The remaining activated carboxymethylated groups were blocked with a 10 min injection of 1 M ethanolamine pH 8. HBS-N, which consists of 10 mM HEPES pH 7.4 and 150 mM NaCl, was used as the background buffer during immobilization. PROTACs were prediluted in DMSO, diluted 1:50 in running buffer (12 mM phosphate pH 7.4, 137 mM NaCl, 2.7 mM KCl, 0.05% Tween20, 2% DMSO) and injected at ten different concentrations using two-fold dilution series, from 1 μM to 0.002 μM. A DMSO solvent correction (1%-3%) was performed to account for variations in bulk signal and to achieve high-quality data. Interaction analysis cycles consisted of a 300 sec sample injection (30 μL/min; association phase) followed by 900 sec of buffer flow (dissociation phase).
(§5) All sensorgrams were processed by first subtracting the binding response recorded from the control surface (reference flow-channel), followed by subtracting of the buffer blank injection from the active flow-channel (target protein immobilized). All datasets were fit to a simple 1:1 Langmuir interaction model to determine the kinetic rate constants. Experiments were performed on a Biacore 8k+ (Cytiva, Uppsala, Sweden) at 25° C. and the interactions were evaluated using the provided Biacore Insight Evaluation software.

CD33xMIC7 = assay: as above; conditions: CD33xMIC7 immobilized, 25° C., read-out: KD [M] for antibody binding to PROTAC
Protocol: as §4, §5

Row | Structure (SMILES) | Kd (MIC2) | koff (MIC2) | kon (MIC2) | Kd (MIC1) | IC50 (MCF7) | IC50 (MDAMB468 cells) | IC50 (HCC827) | IC50 (A431) | IC50 (OVCAR3) | IC50 (SKOV3) | IC50 (HEPG2 cells) | IC50 (A549) | IC50 (NCIN87) | IC50 (SKBR3) | Kd (CLL1xMIC7) | Kd (CD33xMIC7)
1 | Cc1ncsc1-c1ccc(CNC(=O)[C@@H]2C[C@@H](O)CN2C(=O)[C@@H](NC(=O)COCCOCCOCCNC(=O)C[C@@H]2N=C(c3ccc(Cl)cc3)c3c(sc(C)c3C)-n3c(C)nnc32)C(C)(C)C)cc1 [MZ1] | 0.12 nM | NM/1.30E−04 1/s | NM/1.10E+06 1/Ms | 4.9 nM |  |  |  |  |  |  |  |  |  |  |  | 
2 | Cc1ncsc1-c1ccc(CNC(=O)[C@@H]2C[C@@H](O)CN2C(=O)[C@@H](NC(=O)COCC(C)(COCCOCCOCCNC(=O)C[C@@H]2N=C(c3ccc(Cl)cc3)c3c(sc(C)c3C)-n3c(C)nnc32)COCCOCCOCCNC(=O)C[C@@H]2N=C(c3ccc(Cl)cc3)c3c(sc(C)c3C)-n3c(C)nnc32)C(C)(C)C)cc1 [SIM1] |  |  |  |  | 1.5 nM | 7.1 nM | 6.5 nM | 3 nM | 2.8 nM | 2.4 nM | 14 nM | 17 nM | 4 nM | 3.6 nM | < 1e-10 M | 3.8e-09 M

— patent US20250312468A1, “ANTI-PROTAC ANTIBODIES AND COMPLEXES” (Merck Patent GmbH, priority 2021, published 2025)
